In patent US12162856B2, “β-catenin and B-cell lymphoma 9 (BCL9) inhibitors” (H. LEE MOFFITT CANCER CENTER AND RESEARCH INSTITUTE, INC., priority 2019, dated 2024) one finds Ki data, which are given here for 14 compounds.

As usually defined, the Ki is a dissociation constant, usually derived from enzyme kinetics or from competition with a known ligand.

The target in this assay is T1, β-catenin/BCL9 PPI (Homo sapiens, UniProt P35222).
T1 construct: Wild-type full-length β-catenin were cloned into a pET-28b vector; made in house; host or cells: Escherichia coli BL21 DE3 (β-catenin); BCL9 peptide chemically synthesized
T1 sequence (P35222 1-781): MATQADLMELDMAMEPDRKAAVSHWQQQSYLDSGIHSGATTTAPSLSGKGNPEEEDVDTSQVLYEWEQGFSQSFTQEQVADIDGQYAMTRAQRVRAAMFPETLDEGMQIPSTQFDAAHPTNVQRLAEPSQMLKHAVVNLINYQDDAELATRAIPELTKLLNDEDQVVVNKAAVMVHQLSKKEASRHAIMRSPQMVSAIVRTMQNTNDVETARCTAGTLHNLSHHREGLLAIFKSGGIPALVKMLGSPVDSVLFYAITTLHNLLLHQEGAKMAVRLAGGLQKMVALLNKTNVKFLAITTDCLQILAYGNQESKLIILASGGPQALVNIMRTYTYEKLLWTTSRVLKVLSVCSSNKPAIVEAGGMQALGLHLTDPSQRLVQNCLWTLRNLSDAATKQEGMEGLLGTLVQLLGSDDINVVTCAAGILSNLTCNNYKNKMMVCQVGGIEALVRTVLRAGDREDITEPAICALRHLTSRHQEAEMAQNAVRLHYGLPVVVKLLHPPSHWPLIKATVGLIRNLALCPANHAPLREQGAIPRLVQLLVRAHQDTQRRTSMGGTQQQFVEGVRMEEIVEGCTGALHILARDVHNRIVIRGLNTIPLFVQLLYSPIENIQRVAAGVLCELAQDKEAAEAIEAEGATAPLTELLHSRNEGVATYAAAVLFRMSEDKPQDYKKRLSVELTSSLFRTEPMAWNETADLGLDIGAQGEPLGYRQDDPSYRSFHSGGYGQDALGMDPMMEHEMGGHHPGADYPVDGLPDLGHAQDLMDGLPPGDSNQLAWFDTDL
The assay is described as follows: AlphaScreen competitive inhibition assay of the β-catenin/BCL9 PPI. As to conditions: mean ± SD, triplicate, Ki derived from IC50 (Nikolovska-Coleska equation). The class given is binding. Here is the method: Protein expression and purification. Wild-type full-length β-catenin were cloned into a pET-28b vector carrying a C-terminal 6×histidine (Novagen), and transformed into Escherichia coli BL21 DE3 (Novagen). Cells were cultured in LB medium with 30 μg/mL kanamycin until the OD600 was approximately 0.8, and then protein expression was induced with 400 μM of IPTG at 20° C. overnight. Cells were lysed by sonication. The proteins were purified by Ni-NTA affinity chromatography (30210, Qiagen) and dialyzed against a buffer containing 20 mM of Tris (pH 8.5), 100 mM NaCl, 10% glycerol, and 3 mM DTT. The purity of β-eaten in was greater than 95% as determined by SDS-PAGE gel analysis. Native non-denaturing gel electrophoresis was performed to confirm the homogeneity of the purified proteins. Thermal-shift assay was performed on an iCycler iQ Real Time Detection System (Bio-Rad) to monitor protein stability and detect protein aggregation. Protein unfolding was evaluated through measuring the S15 fluorescence changes of fluorescent dye Sypro Orange when interacting with wild-type or mutant β-catenin proteins. A temperature increment of […] was applied. CD spectra were measured on a J-815 spectropolarimeter (Jasco). All spectra were recorded at room temperature, and the baseline control containing all of the substances except protein. Sample were prepared at a concentration around 1-5 μM in a buffer of 10 mM potassium phosphate and 100 mM potassium fluoride at pH 7.0 to ensure that the transmission of light through the sample was not restricted. All proteins were stable and no aggregation was observed under storage or assay conditions. Proteins were aliquoted and stored at −80° C.
BCL9 peptide synthesis and purification. Human BCL9 (residues 350-375), and […] biotinylated human BCL9 (residues 350-375) were synthesized. All synthesized peptides were purified by HPLC with purity >95%. The structures were validated by LC/MS. The sequences are as follows (Ahx, 6-aminohexanoic acid).
AlphaScreen competitive inhibition assays. For the competitive inhibition assays of the β-catenin/BCL9 PPI, the negative control (equivalent to 0% inhibition) refers to 5.0 nM of biotinylated BCL9, 40 nM of His6-tagged β-catenin, and 10 μg/mL of donor and acceptor beads in a final volume of 25 μL assay buffer, but no tested inhibitor present. The positive control (equivalent to 100% inhibition) refers to 5.0 nM of biotinylated BCL9 and […] of donor and acceptor beads in a final volume of 25 μL assay buffer.
For the β-catenin/BCL9 assay, 5 nM of biotinylated BCL9 and 40 nM of His6-tagged β-catenin were incubated in assay buffer at 4° C. for 30 min. Different concentrations of the tested inhibitor were added and incubated in 20 μL assay buffer at 4° C. for another 1 h. All of the above assay plates were covered and gently mixed on an orbital shaker. The donor and acceptor beads were then added to the plates to a final concentration of 10 μg/mL in 25 μL assay buffer. The mixture was incubated for 1 h at 4° C. before detection. The IC50 value was determined by nonlinear least-square analysis of GraphPad Prism 5.0. The Ki values were derived from the IC50 values using a method reported by Nikolovska-Coleska et al (Nikolovska-Coleska, Z.; Wang, R.; Fang, X.; Pan, H.; Tomita, Y.; Li, P.; Roller, P. P.; Krajewski, K.; Saito, N. G.; Stuckey, J. A.; Wang, S. Development and optimization of a binding assay for the XIAP BIR3 domain using fluorescence polarization. Anal. Biochem. 2004, 332, 261-273.). The assays were conducted under the conditions required by Nikolovska-Coleska et al.'s equation for determining the Ki values. All of the experiments were performed in triplicate. The results were expressed as mean±standard deviation.
(Alpha assays give light when donor and acceptor beads are brought close together.)

Where [1] appears, read: experiment 1, read-out: Ki (μM ± SD) experiment 1.
The mark [2] stands for this setting: experiment 2, read-out: Ki (μM ± SD) experiment 2.
The mark [3] stands for this setting: experiment 3, read-out: Ki (μM ± SD) experiment 3.
Setting [4] is: experiment 4, read-out: Ki (μM ± SD) experiment 4.

Structures can show the parent of a compound that is named as a salt. Where two headings read alike, the source gives them in different places.

As to `CN(C(=O)CCCN)c1cc(F)cc(C(=O)N2CCN(C(=O)c3ccc(O[C@H]4CCNC4)c(C4CCCCC4)c3)CC2)c1` [Compound 6, (S)-4-amino-N-(3-(4-(3-cyclohexyl-4-(pyrrolidin-3-yloxy)benzoyl)piperazine-1-carbonyl)-5-fluorophenyl)-N-methylbutanamide ditrifluoroacetate], the Ki by setting is: under setting [1], 840 ± 64 µM; under setting [2], 380 ± 44 µM.

Take `CN(C(=O)C1CCNCC1)c1cc(F)cc(C(=O)N2CCN(C(=O)c3ccc(O[C@H]4CCNC4)c(C4CCCCC4)c3)CC2)c1` [Compound 10, (S)—N-(3-(4-(3-cyclohexyl-4-(pyrrolidin-3-yloxy)benzoyl)piperazine-1-carbonyl)-5-fluorophenyl)-N-methylpiperidine-4-carboxamide ditrifluoroacetate]: the Ki turned out to be 420 ± 50 µM under setting [1] and 76 ± 8.3 µM under setting [2].

`CC(C)(CN)C(=O)Nc1cc(F)cc(C(=O)N2CCN(C(=O)c3ccc(O[C@H]4CCNC4)c(C4CCC(C(F)(F)F)CC4)c3)CC2)c1` (stereo partly drawn) [Compound 11, (S)-3-amino-N-(3-fluoro-5-(4-(4-(pyrrolidin-3-yloxy)-3-(4-(trifluoromethyl)cyclohexyl)benzoyl)piperazine-1-carbonyl)phenyl)-2,2-dimethylpropanamide ditrifluoroacetate]: the Ki under setting [1] was found to be 170 ± 23 µM and the Ki under setting [2] was 150 ± 18 µM.

Take `NCCCC(=O)Nc1cc(F)cc(C(=O)N2CCN(C(=O)c3ccc(O[C@H]4CCNC4)c(C4CCCCC4)c3)CC2)c1` [Compound 1, (S)-4-Amino-N-(3-(4-(3-cyclohexyl-4-(pyrrolidin-3-yloxy)benzoyl)piperazine-1-carbonyl)-5-fluorophenyl) butanamide ditrifluoroacetate]: the Ki reads like this: under setting [1], 310 ± 48 µM; under setting [2], 310 ± 23 µM.

On to `CC[C@H]1CN(C(=O)c2cc(F)cc(NC(C)=O)c2)CCN1C(=O)c1ccc(O[C@H]2CCNC2)c(C2CCCCC2)c1` [Compound 14, N-(3-((S)-4-(3-Cyclohexyl-4-(((S)-pyrrolidin-3-yl)oxy)benzoyl)-3-ethylpiperazine-1-carbonyl)-5-fluorophenyl) acetamide trifluoroacetate], for which the inhibition constant Ki worked out at 790 ± 58 µM under setting [3] and 780 ± 130 µM under setting [4].

`CC(=O)Nc1cc(F)cc(C(=O)N2CCN(C(=O)c3ccc(O[C@H]4CCNC4)c(C4CCCCC4)c3)[C@@H](C)C2)c1` [Compound 13, N-(3-((S)-4-(3-Cyclohexyl-4-(((S)-pyrrolidin-3-yl)oxy)benzoyl)-3-methylpiperazine-1-carbonyl)-5-fluorophenyl) acetamide trifluoroacetate]: the Ki by setting is: under setting [3], 330 ± 34 µM; under setting [4], 100 ± 18 µM.

Turning to `CC(=O)Nc1cc(F)cc(C(=O)N2CCN(C(=O)c3ccc(O[C@H]4CCNC4)c(C4CCCCC4)c3)[C@@H](C(C)C)C2)c1` [Compound 15, N-(3-((S)-4-(3-Cyclohexyl-4-(((S)-pyrrolidin-3-yl)oxy)benzoyl)-3-isopropylpiperazine-1-carbonyl)-5-fluorophenyl) acetamide trifluoroacetate], the inhibitory constant (Ki) reads like this: under setting [3], 280 ± 27 µM; under setting [4], 290 ± 61 µM.

On to `CC(C)(N)C(=O)Nc1cc(F)cc(C(=O)N2CCN(C(=O)c3ccc(O[C@H]4CCNC4)c(C4CCCCC4)c3)CC2)c1` [Compound 3, (S)-2-Amino-N-(3-(4-(3-cyclohexyl-4-(pyrrolidin-3-yloxy)benzoyl)piperazine-1-carbonyl)-5-fluorophenyl)-2-methylpropanamide ditrifluoroacetate], for which the inhibitory constant (Ki) is, setting by setting: under setting [1], 310 ± 32 µM; under setting [2], 550 ± 46 µM.

Take `CN(C(=O)C(C)(C)N)c1cc(F)cc(C(=O)N2CCN(C(=O)c3ccc(O[C@H]4CCNC4)c(C4CCCCC4)c3)CC2)c1` [Compound 8, (S)-2-amino-N-(3-(4-(3-cyclohexyl-4-(pyrrolidin-3-yloxy)benzoyl)piperazine-1-carbonyl)-5-fluorophenyl)-N,2-dimethylpropanamide ditrifluoroacetate]: the Ki runs as follows: under setting [1], 32 ± 4 µM; under setting [2], 71 ± 8.7 µM.

Consider `CN(C(=O)CCCCN)c1cc(F)cc(C(=O)N2CCN(C(=O)c3ccc(O[C@H]4CCNC4)c(C4CCCCC4)c3)CC2)c1` [Compound 7, (S)-5-amino-N-(3-(4-(3-cyclohexyl-4-(pyrrolidin-3-yloxy)benzoyl)piperazine-1-carbonyl)-5-fluorophenyl)-N-methylpentanamide ditrifluoroacetate], for which the Ki under setting [1] turned out to be 730 ± 73 µM and the inhibitory constant (Ki) under setting [2] is 240 ± 33 µM.

`CN(C(=O)C(C)(C)CN)c1cc(F)cc(C(=O)N2CCN(C(=O)c3ccc(O[C@H]4CCNC4)c(C4CCCCC4)c3)CC2)c1` [Compound 9, (S)-3-amino-N-(3-(4-(3-cyclohexyl-4-(pyrrolidin-3-yloxy)benzoyl)piperazine-1-carbonyl)-5-fluorophenyl)-N,2,2-trimethylpropanamide ditrifluoroacetate]: the Ki is, setting by setting: under setting [1], over 90 µM; under setting [2], over 90 µM.

With `CC(C)(CN)C(=O)Nc1cc(F)cc(C(=O)N2CCN(C(=O)c3ccc(O[C@H]4CCNC4)c(C4CCCCC4)c3)CC2)c1` [Compound 4, (S)-3-Amino-N-(3-(4-(3-cyclohexyl-4-(pyrrolidin-3-yloxy)benzoyl)piperazine-1-carbonyl)-5-fluorophenyl)-2,2-dimethylpropanamide ditrifluoroacetate], the inhibition constant (Ki) under setting [1] was 780 ± 59 µM and the inhibition constant Ki under setting [2] stood at 310 ± 43 µM.

Regarding `O=C(Nc1cc(F)cc(C(=O)N2CCN(C(=O)c3ccc(O[C@H]4CCNC4)c(C4CCCCC4)c3)CC2)c1)C1CCNCC1` [Compound 5, (S)—N-(3-(4-(3-cyclohexyl-4-(pyrrolidin-3-yloxy)benzoyl)piperazine-1-carbonyl)-5-fluorophenyl) piperidine-4-carboxamide ditrifluoroacetate], the Ki is, setting by setting: under setting [1], 157 ± 17 µM; under setting [2], 160 ± 22 µM.

On to `CC(=O)Nc1cc(F)cc(C(=O)N2CCN(C(=O)c3ccc(O[C@H]4CCNC4)c(C4CCCCC4)c3)[C@@H](CC(C)C)C2)c1` [Compound 16, N-(3-((S)-4-(3-Cyclohexyl-4-(((S)-pyrrolidin-3-yl)oxy)benzoyl)-3-isobutylpiperazine-1-carbonyl)-5-fluorophenyl)acetamide trifluoroacetate], for which the inhibition constant Ki worked out at 330 ± 43 µM under setting [3] and 200 ± 20 µM under setting [4].
